Experimental data as given in the NIST ThermoML archive (doi:10.1021/je060271a).
Several values for one entry are separate records, joined by “and”; a condition that tells them apart may be missing. Equal values may be shown once. Numbers after ± are expanded uncertainties.

Conditions: 343.15 K, Liquid, Vibrating tube method

CCCCCC(=O)OCC(COC(=O)CCCCC)(COC(=O)CCCCC)COC(=O)CCCCC [pentaerythritol tetrahexanoate]
Conditions	mass density
220.8 kPa	957.1 ± 1.2 kg/m3
221 kPa	957.1 ± 1.2 kg/m3
221.2 kPa	957.3 ± 1.2 kg/m3
221.3 kPa	957.2 ± 1.2 kg/m3
222.7 kPa	957.3 ± 1.2 kg/m3
222.9 kPa	957.1 ± 1.2 kg/m3
223.1 kPa	957.2 ± 1.2 kg/m3
223.3 kPa	957.3 ± 1.2 kg/m3 and 957.4 ± 1.2 kg/m3
223.4 kPa	957.1 ± 1.2 kg/m3 and 957.3 ± 1.2 kg/m3 and 957.2 ± 1.2 kg/m3
223.6 kPa	957.2 ± 1.2 kg/m3
223.8 kPa	957.3 ± 1.2 kg/m3
224.1 kPa	957.2 ± 1.2 kg/m3
224.3 kPa	957.3 ± 1.2 kg/m3 and 957.2 ± 1.2 kg/m3
224.5 kPa	957.2 ± 1.2 kg/m3 and 957.3 ± 1.2 kg/m3 and 957.1 ± 1.2 kg/m3
224.7 kPa	957.2 ± 1.2 kg/m3
224.8 kPa	957.3 ± 1.2 kg/m3 and 957.2 ± 1.2 kg/m3
225.2 kPa	957.3 ± 1.2 kg/m3
226.9 kPa	957.2 ± 1.2 kg/m3 and 957.3 ± 1.2 kg/m3
227.1 kPa	957.3 ± 1.2 kg/m3
227.4 kPa	957.2 ± 1.2 kg/m3
231.3 kPa	957.2 ± 1.2 kg/m3 and 957.3 ± 1.2 kg/m3
231.6 kPa	957.3 ± 1.2 kg/m3 and 957.1 ± 1.2 kg/m3
232 kPa	957.1 ± 1.2 kg/m3 and 957.2 ± 1.2 kg/m3
232.3 kPa	957.3 ± 1.2 kg/m3 and 957.2 ± 1.2 kg/m3
232.5 kPa	957.2 ± 1.2 kg/m3
232.6 kPa	957.3 ± 1.2 kg/m3
232.7 kPa	957.3 ± 1.2 kg/m3
233 kPa	957.2 ± 1.2 kg/m3
233.2 kPa	957.2 ± 1.2 kg/m3
233.3 kPa	957.2 ± 1.2 kg/m3
233.5 kPa	957.2 ± 1.2 kg/m3
233.7 kPa	957.3 ± 1.2 kg/m3
233.9 kPa	957.3 ± 1.2 kg/m3
234 kPa	957.2 ± 1.2 kg/m3 and 957.3 ± 1.2 kg/m3
234.4 kPa	957.2 ± 1.2 kg/m3
234.6 kPa	957.1 ± 1.2 kg/m3 and 957.4 ± 1.2 kg/m3 and 957.3 ± 1.2 kg/m3
234.7 kPa	957.3 ± 1.2 kg/m3
234.9 kPa	957.2 ± 1.2 kg/m3
235.1 kPa	957.2 ± 1.2 kg/m3
235.2 kPa	957.2 ± 1.2 kg/m3
235.6 kPa	957.2 ± 1.2 kg/m3
235.8 kPa	957.1 ± 1.2 kg/m3
236 kPa	957.2 ± 1.2 kg/m3
236.1 kPa	957.2 ± 1.2 kg/m3 and 957.3 ± 1.2 kg/m3
236.3 kPa	957.3 ± 1.2 kg/m3
236.5 kPa	957.1 ± 1.2 kg/m3
236.6 kPa	957.2 ± 1.2 kg/m3
236.8 kPa	957.2 ± 1.2 kg/m3
237 kPa	957.1 ± 1.2 kg/m3 and 957.2 ± 1.2 kg/m3 and 957.3 ± 1.2 kg/m3
237.3 kPa	957.3 ± 1.2 kg/m3
237.5 kPa	957.2 ± 1.2 kg/m3
237.7 kPa	957.2 ± 1.2 kg/m3 and 957.4 ± 1.2 kg/m3
237.9 kPa	957.2 ± 1.2 kg/m3
238 kPa	957.3 ± 1.2 kg/m3
238.2 kPa	957.2 ± 1.2 kg/m3
238.4 kPa	957.3 ± 1.2 kg/m3
238.6 kPa	957.3 ± 1.2 kg/m3
238.7 kPa	957.3 ± 1.2 kg/m3
238.9 kPa	957.3 ± 1.2 kg/m3
239.2 kPa	957.1 ± 1.2 kg/m3
239.3 kPa	957.3 ± 1.2 kg/m3
240.1 kPa	957.3 ± 1.2 kg/m3
240.3 kPa	957.3 ± 1.2 kg/m3
240.5 kPa	957.3 ± 1.2 kg/m3 and 957.2 ± 1.2 kg/m3
240.6 kPa	957.1 ± 1.2 kg/m3
240.8 kPa	957.3 ± 1.2 kg/m3
241.2 kPa	957.4 ± 1.2 kg/m3
241.3 kPa	957.3 ± 1.2 kg/m3 and 957.2 ± 1.2 kg/m3
241.5 kPa	957.3 ± 1.2 kg/m3 and 957.1 ± 1.2 kg/m3
242 kPa	957.3 ± 1.2 kg/m3
242.2 kPa	957.3 ± 1.2 kg/m3
242.4 kPa	957.2 ± 1.2 kg/m3
242.6 kPa	957.3 ± 1.2 kg/m3
